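These data come from cells grown in 96-well plates and exposed to compound for 48 hours at five concentrations. The concentration for 50% growth inhibition is given as GI50. TGI: concentration producing complete growth inhibition.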
Columns and labels:
Assay in all cases: NCI tumour cell line growth inhibition, 48 h
A498 renal = tested on: A498 renal
A549 NSCLC = tested on: A549 NSCLC
COLO 205 colon = tested on: COLO 205 colon
HCC-2998 colon = tested on: HCC-2998 colon
HCT-15 colon = tested on: HCT-15 colon
HOP-62 NSCLC = tested on: HOP-62 NSCLC
HT29 colon = tested on: HT29 colon
M14 melanoma = tested on: M14 melanoma
MALME-3M melanoma = tested on: MALME-3M melanoma
SK-MEL-5 melanoma = tested on: SK-MEL-5 melanoma

SMILES	TGI (A498 renal)	TGI (A549 NSCLC)	TGI (COLO 205 colon)	TGI (HCC-2998 colon)	TGI (HCT-15 colon)	TGI (HOP-62 NSCLC)	TGI (HT29 colon)	TGI (M14 melanoma)	TGI (MALME-3M melanoma)	TGI (SK-MEL-5 melanoma)	GI50 (A498 renal)	GI50 (A549 NSCLC)	GI50 (COLO 205 colon)	GI50 (HCC-2998 colon)	GI50 (HCT-15 colon)	GI50 (HOP-62 NSCLC)	GI50 (HT29 colon)	GI50 (M14 melanoma)	GI50 (MALME-3M melanoma)	GI50 (SK-MEL-5 melanoma)
O=C(O)C1C(C(=O)Nc2ccc3c(c2)Cc2ccccc2-3)C2(Cl)C(Cl)=C(Cl)C1(Cl)C2(Cl)Cl (centres undefined)	47.7 µM	> 100 µM	31.4 µM	34.8 µM	48.5 µM	> 100 µM	41.7 µM	42.7 µM	44.6 µM	27.5 µM	–	–	–	–	–	–	–	–	–	–
CCCC/C=C/C1Cc2ccccc2CN1S(=O)(=O)c1ccc(C)cc1 (centres undefined)	–	26.3 µM	22 µM	25.3 µM	49.2 µM	> 100 µM	21.7 µM	26 µM	> 100 µM	14.9 µM	–	–	–	–	–	–	–	–	–	–
CC(=O)OC1CC(n2cc(F)c(=O)[nH]c2=O)OC1CO (centres undefined)	15.5 µM	> 90.8 µM	> 100 µM	8.33 µM	> 100 µM	10.1 µM	> 100 µM	45.6 µM	> 100 µM	16.2 µM	–	–	–	–	–	–	–	–	–	–
COc1ccc(C(=O)c2ccc(OC)c(OC)c2OC)cc1	9.39 µM	> 100 µM	3.13 µM	> 100 µM	> 100 µM	> 100 µM	33.5 µM	71.2 µM	> 100 µM	37.2 µM	1.08 µM	2.01 µM	1.14 µM	2.76 µM	0.596 µM	2.39 µM	0.465 µM	1.32 µM	1.77 µM	1.68 µM
O=S(O)CCCCCSSCCCCSSCCCCCS(=O)O	> 100 µM	> 100 µM	> 100 µM	–	> 100 µM	> 100 µM	> 100 µM	> 100 µM	86.6 µM	> 100 µM	–	–	–	–	–	–	–	–	–	–
CCn1c2c(n(CC)c1=S)-c1c(n(CC)c(=S)n1CC)SSSS2	63.8 µM	68.4 µM	19.1 µM	49.4 µM	11.8 µM	> 100 µM	29.2 µM	18.1 µM	9.08 µM	43.1 µM	–	–	–	–	–	–	–	–	–	–
C/C(=N\NC(=O)c1ccncc1)c1ccc2ccccc2c1O	53.3 µM	> 100 µM	11.5 µM	53.8 µM	> 100 µM	> 72.7 µM	> 58.6 µM	38.2 µM	43.2 µM	14.1 µM	–	–	–	–	–	–	–	–	–	–
Cn1c2c(c3ccccc31)C1CCCCC1C1C(=O)NC(=O)C21 (centres undefined)	> 100 µM	> 100 µM	> 100 µM	> 100 µM	> 100 µM	–	> 100 µM	> 100 µM	> 100 µM	> 100 µM	–	–	–	–	–	–	–	–	–	–
CN1CCCNc2c(c(=O)c2=O)NCCCN(C)CCCNc2c(c(=O)c2=O)NCCCN(C)CCCNc2c(c(=O)c2=O)NCCCN(C)CCCNc2c(c(=O)c2=O)NCCCN(C)CCCNc2c(c(=O)c2=O)NCCCN(C)CCCNc2c(c(=O)c2=O)NCCCN(C)CCCNc2c(c(=O)c2=O)NCCC1	11.1 µM	> 50 µM	6.13 µM	22.1 µM	22.5 µM	13.8 µM	> 50 µM	18.6 µM	3.54 µM	21.9 µM	2.72 µM	6.05 µM	2 µM	7.18 µM	5.19 µM	4.41 µM	9.87 µM	6.86 µM	1.11 µM	6.69 µM
CC1C[C@H](OC(N)=O)C(C)CC1=O (some centres undefined)	> 100 µM	> 100 µM	> 100 µM	> 100 µM	> 100 µM	> 100 µM	> 100 µM	> 100 µM	> 100 µM	> 100 µM	–	–	–	–	–	–	–	–	–	–
CC1=CC(=O)CCC2(C)C1CC[C@@H]2OC=O (some centres undefined)	–	> 100 µM	> 100 µM	> 100 µM	–	> 100 µM	> 100 µM	> 100 µM	–	> 100 µM	–	–	–	–	–	–	–	–	–	–
COc1ccc2oc3c4c2c1CCC4CCC3=O (centres undefined)	> 100 µM	> 100 µM	> 100 µM	> 100 µM	–	> 100 µM	> 100 µM	> 100 µM	> 100 µM	> 100 µM	–	–	–	–	–	–	–	–	–	–
CSC(C1c2ccccc2N(C)C2=NC(=O)N(C)C(=O)C21Cl)S(=O)(=O)c1ccc(C)cc1 (centres undefined)	> 100 µM	> 100 µM	> 100 µM	> 100 µM	> 100 µM	> 100 µM	> 100 µM	–	> 100 µM	> 100 µM	–	–	–	–	–	–	–	–	–	–
CN1C2(c3ccccc3)c3c(-c4ccccc4)sc(-c4ccccc4)c3C1(c1ccccc1)C1C(=O)N(c3ccccc3)C(=O)C12 (centres undefined)	> 100 µM	> 100 µM	> 100 µM	> 100 µM	–	> 100 µM	> 100 µM	> 100 µM	> 100 µM	> 100 µM	–	–	–	–	–	–	–	–	–	–
CSc1cnn(CCC#N)c(=O)n1	> 100 µM	> 100 µM	> 100 µM	> 100 µM	–	> 100 µM	> 100 µM	> 100 µM	> 100 µM	> 100 µM	–	–	–	–	–	–	–	–	–	–
O=C1OCC(c2cccs2)=C1Cl	63.9 µM	> 100 µM	> 100 µM	–	> 100 µM	> 100 µM	> 100 µM	> 100 µM	> 100 µM	> 100 µM	17.6 µM	41.1 µM	32.2 µM	–	74.2 µM	> 100 µM	62.4 µM	> 100 µM	> 100 µM	86.3 µM
Cc1ccc(C2NC(=S)NC3=C2CCOc2c3ccc3ccccc23)cc1 (centres undefined)	–	> 100 µM	> 100 µM	> 100 µM	> 100 µM	> 100 µM	> 100 µM	> 100 µM	7.73 µM	–	–	> 100 µM	9.64 µM	10.8 µM	> 100 µM	> 100 µM	8 µM	79 µM	2.98 µM	–
COc1ccc(/C(Cl)=C(\C=O)c2ccc([N+](=O)[O-])cc2)cc1OC	> 54.4 µM	> 100 µM	> 58.3 µM	–	23.7 µM	> 100 µM	> 30.5 µM	43.5 µM	41 µM	23 µM	–	–	–	–	–	–	–	–	–	–
COc1ccc(-c2ccc(/C=N/n3c(COc4ccccc4Cl)nn(CN4CCN(C)CC4)c3=S)o2)c([N+](=O)[O-])c1	–	36.7 µM	60.3 µM	27.7 µM	38.3 µM	37 µM	55.9 µM	34.2 µM	49.2 µM	–	–	14.1 µM	24.4 µM	14.5 µM	17.4 µM	21.7 µM	23.5 µM	17.7 µM	20.9 µM	–

From PubChem BioAssay (NCI)
